Tests used:
Assay in all cases: relative viability (nuclei count vs DMSO), 5 days (fraction); higher = more cells survive
[1] = tested on: NCI-H2023
Summary of the method: (§1)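 Lung cancer cell lines in 1536-well plates got either a single drug or a fixed anchor-drug dose together with five library-drug doses (not always all listed) in √10 steps, by pin tool, on the day after seeding. Nuclei were counted after 5 days, and relative viability is the treated-to-vehicle ratio of nuclei counts. Values are medians of duplicate plates.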

[2] = tested on: NCI-H2405
Summary of the method: as §1

[3] = tested on: SW 1573
Summary of the method: as §1

[4] = tested on: NCI-H2009
Summary of the method: as §1

[5] = tested on: NCI-H520
Summary of the method: as §1

[6] = tested on: NCI-H2347
Summary of the method: as §1

[7] = tested on: NCI-H1793
Summary of the method: as §1

[8] = tested on: NCI-H441
Summary of the method: as §1

[9] = tested on: LOU-NH91
Summary of the method: as §1

[10] = tested on: NCI-H650
Summary of the method: as §1

[11] = tested on: ChaGo-K-1
Summary of the method: as §1

[12] = tested on: EMC-BAC-2
Summary of the method: as §1

[13] = tested on: NCI-H1437
Summary of the method: as §1

[14] = tested on: SW 900
Summary of the method: as §1

[15] = tested on: NCI-H2170
Summary of the method: as §1

[16] = tested on: HOP-62
Summary of the method: as §1

[17] = tested on: HCC-44
Summary of the method: as §1

[18] = tested on: NCI-H460
Summary of the method: as §1

[19] = tested on: NCI-H727
Summary of the method: as §1

[20] = tested on: NCI-H647
Summary of the method: as §1

[21] = tested on: EPLC-272H
Summary of the method: as §1

[22] = tested on: NCI-H2126
Summary of the method: as §1

With `COCC1(CO)C(=O)C2CCN1CC2` (stereo not drawn) [PRIMA-1MET] + Cc1cc(Nc2cc(N3CCN(C)CC3)nc(Sc3ccc(NC(=O)C4CC4)cc3)n2)n[nH]1 [Tozasertib] (partner 0.1 µM) the relative viability ([1]; first compound 0.2 µM) was 0.461, the relative viability ([1]; first compound 0.6325 µM) was 0.327 and the relative viability ([1]; first compound 2 µM) was 0.389. For the same compound, the relative viability ([1]; first compound 6.325 µM) was 0.359, the relative viability ([1]; first compound 20 µM) was 0.35 and the relative viability ([2]; first compound 0.2 µM) was 0.735. For the same compound, the relative viability ([2]; first compound 0.6325 µM) was 0.812, the relative viability ([2]; first compound 6.325 µM) was 0.667 and the relative viability ([2]; first compound 20 µM) was 0.329. For the same compound, the relative viability ([3]; first compound 0.2 µM) was 0.189, the relative viability ([3]; first compound 0.6325 µM) was 0.0874 and the relative viability ([3]; first compound 2 µM) was 0.191. It also gave a relative viability ([3]; first compound 6.325 µM) of 0.0585, a relative viability ([3]; first compound 20 µM) of 0.0263 and a relative viability ([4]; first compound 0.2 µM) of 0.846. It also gave a relative viability ([4]; first compound 0.6325 µM) of 0.742, a relative viability ([4]; first compound 2 µM) of 0.948 and a relative viability ([4]; first compound 6.325 µM) of 0.726. For the same compound, the relative viability ([4]; first compound 20 µM) was 0.0462, the relative viability ([5]; first compound 0.2 µM) was 0.402 and the relative viability ([5]; first compound 0.6325 µM) was 0.416. It also gave a relative viability ([5]; first compound 6.325 µM) of 0.384, a relative viability ([5]; first compound 20 µM) of 0.236 and a relative viability ([6]; first compound 0.2 µM) of 0.566. The relative viability ([6]; first compound 0.6325 µM) was 0.531, the relative viability ([6]; first compound 2 µM) was 0.237 and the relative viability ([6]; first compound 6.325 µM) was 0.516. The relative viability ([6]; first compound 20 µM) was 0.433, the relative viability ([7]; first compound 0.2 µM) was 0.44 and the relative viability ([7]; first compound 0.6325 µM) was 0.316. For the same compound, the relative viability ([7]; first compound 6.325 µM) was 0.414, the relative viability ([7]; first compound 20 µM) was 0.237 and the relative viability ([8]; first compound 0.2 µM) was 0.629. The relative viability ([8]; first compound 0.6325 µM) was 0.667, the relative viability ([8]; first compound 2 µM) was 0.77 and the relative viability ([8]; first compound 6.325 µM) was 0.743. It also gave a relative viability ([8]; first compound 20 µM) of 0.309, a relative viability ([9]; first compound 0.2 µM) of 0.618 and a relative viability ([9]; first compound 0.6325 µM) of 0.673. It also gave a relative viability ([9]; first compound 2 µM) of 0.625, a relative viability ([9]; first compound 6.325 µM) of 0.715 and a relative viability ([9]; first compound 20 µM) of 0.427. It also gave a relative viability ([10]; first compound 0.2 µM) of 0.91, a relative viability ([10]; first compound 2 µM) of 0.639 and a relative viability ([10]; first compound 6.325 µM) of 0.749. For the same compound, the relative viability ([10]; first compound 20 µM) was 0.306, the relative viability ([11]; first compound 0.2 µM) was 0.209 and the relative viability ([11]; first compound 0.6325 µM) was 0.2. The relative viability ([11]; first compound 2 µM) was 0.213, the relative viability ([11]; first compound 6.325 µM) was 0.224 and the relative viability ([11]; first compound 20 µM) was 0.207. The relative viability ([12]; first compound 0.2 µM) was 0.335, the relative viability ([12]; first compound 0.6325 µM) was 0.332 and the relative viability ([12]; first compound 6.325 µM) was 0.277. For the same compound, the relative viability ([12]; first compound 20 µM) was 0.191, the relative viability ([13]; first compound 0.2 µM) was 0.41 and the relative viability ([13]; first compound 0.6325 µM) was 0.408. It also gave a relative viability ([13]; first compound 2 µM) of 0.407, a relative viability ([13]; first compound 6.325 µM) of 0.411 and a relative viability ([13]; first compound 20 µM) of 0.407. It also gave a relative viability ([14]; first compound 0.2 µM) of 0.784, a relative viability ([14]; first compound 0.6325 µM) of 0.465 and a relative viability ([14]; first compound 2 µM) of 0.524. For the same compound, the relative viability ([14]; first compound 6.325 µM) was 0.388, the relative viability ([14]; first compound 20 µM) was 0.084 and the relative viability ([15]; first compound 0.2 µM) was 0.9. For the same compound, the relative viability ([15]; first compound 0.6325 µM) was 0.671, the relative viability ([15]; first compound 2 µM) was 0.677 and the relative viability ([15]; first compound 6.325 µM) was 0.722. For the same compound, the relative viability ([15]; first compound 20 µM) was 0.678, the relative viability ([16]; first compound 0.2 µM) was 0.426 and the relative viability ([16]; first compound 0.6325 µM) was 0.341. The relative viability ([16]; first compound 2 µM) was 0.38, the relative viability ([16]; first compound 6.325 µM) was 0.383 and the relative viability ([16]; first compound 20 µM) was 0.305. It also gave a relative viability ([17]; first compound 0.2 µM) of 1.18, a relative viability ([17]; first compound 0.6325 µM) of 0.958 and a relative viability ([17]; first compound 2 µM) of 0.811. For the same compound, the relative viability ([17]; first compound 6.325 µM) was 1.01, the relative viability ([17]; first compound 20 µM) was 0.827 and the relative viability ([18]; first compound 0.2 µM) was 0.443. It also gave a relative viability ([18]; first compound 0.6325 µM) of 0.312, a relative viability ([18]; first compound 2 µM) of 0.311 and a relative viability ([18]; first compound 6.325 µM) of 0.5. For the same compound, the relative viability ([18]; first compound 20 µM) was 0.0183, the relative viability ([19]; first compound 0.2 µM) was 0.549 and the relative viability ([19]; first compound 0.6325 µM) was 0.543. For the same compound, the relative viability ([19]; first compound 2 µM) was 0.643, the relative viability ([19]; first compound 6.325 µM) was 0.487 and the relative viability ([19]; first compound 20 µM) was 0.293. For the same compound, the relative viability ([20]; first compound 0.2 µM) was 0.615, the relative viability ([20]; first compound 0.6325 µM) was 0.324 and the relative viability ([20]; first compound 2 µM) was 0.263. It also gave a relative viability ([20]; first compound 6.325 µM) of 0.543, a relative viability ([20]; first compound 20 µM) of 0.0988 and a relative viability ([21]; first compound 2 µM) of 0.186. It also gave a relative viability ([21]; first compound 6.325 µM) of 0.196, a relative viability ([21]; first compound 20 µM) of 0.105 and a relative viability ([22]; first compound 0.2 µM) of 1.07. It also gave a relative viability ([22]; first compound 0.6325 µM) of 0.868, a relative viability ([22]; first compound 2 µM) of 0.854 and a relative viability ([22]; first compound 6.325 µM) of 0.898. For the same compound, the relative viability ([22]; first compound 20 µM) was 0.807.

— the supplement of paper PMC10307832
